Source: patent publication EP0497921B1, “METHOD FOR INHIBITING ENZYMATIC SYNTHESIS OF NUCLEIC ACIDS USING ISOPSORALENS” (ISAACS, Stephen T., priority 1989, dated 1991)

Tests used:
tRNA = test: Photobinding to RNA; format: binding; details: 100 µg/ml, irradiated 30 minutes; 1-10 µg treated tRNA spotted; no signal from unirradiated controls
Procedure: This example describes photobinding of ^3H-AMIP, ^3H-AMDMIP and BIOMIP to RNA. A tRNA stock was prepared at a concentration of 765 µg/ml in 1 x TE / 10 mM NaCl. Appropriate amounts of each compound were prepared in separate reaction vessels such that upon addition of 200 µl of the tRNA solution (153 µg) the final concentration of each compound was 100 µg/ml. ^3H-AMIP and […] in the experiment; the BIOMIP used was unlabelled. Each reaction vessel was then irradiated for 30 minutes at 25 °C in the CE-III device. Identical unirradiated reaction mixtures were used as controls for each compound. Following irradiation, each mixture was extracted with CHCl3 (4 x 200 µl) then precipitated (X2). The pellets were resuspended in 1 x TE and the binding levels determined as follows. For the two labelled compounds (^3H-AMDMIP and ^3H-AMIP), the nucleic acid concentration was determined optically and radioactivity measured by scintillation counting of aliquots of the stock solutions. Binding of the compounds was then calculated to be as follows:
To determine if binding of BIOMIP to tRNA has occurred, it was necessary to use a non-radioactive format which detected the biotin moiety on the compound. A commercial kit ("BluGene"; BRL) was used for this purpose. The kit instructions were followed for detection of both the control DNA (supplied with the kit) and BIOMIP treated tRNA. […]

PCR'd MACS 1555 = test: Inhibition of PCR by non-psoralen compounds in the absence of light; format: biochemical; details: 30 cycles
Excerpt: The compounds tested were the following: 1) ethidium bromide (a Phenanthridine, see Table 1), 2) xylene cylanol (an Organic Dye, see Table 1), 3) bromphenol blue (an Organic Dye, see Table 1), 4) coumarin and 5) methylene blue (a Phenazathionium Salt, see Table 1).
A separate experiment examined PCR inhibition with coumarin and methylene blue in the absence of light. The following concentrations of methylene blue were tried: 4.3 x 10^-2, 4.3 x 10^-3, 4.3 x 10^-4 and 4.3 x 10^-5 M. Concentrations of coumarin tried included: 7 x 10^-3, 7 x 10^-4, 7 x 10^-5 and 7 x 10^-6 M. Compound was added to PCR tube containing α-^32P-dCTP and target (1 µl […].; PCR'd MACS 1555 per assay-point). PCR was carried out for 30 x cycles. Samples were loaded onto a 12% / 8 M urea gel.

Compound | binding to tRNA detected via biotin moiety (BluGene kit) (tRNA) | inhibition of PCR in the absence of light (PCR'd MACS 1555)
5-N-[N,N'-Dimethyl-(6-[biotinamido]-hexanoate) -1,6-hexanediamine])-methyl-isopsoralen [BIOMIP] | covalently bound to the tRNA | –
O=c1ccc2ccccc2o1 [Coumarin, coumarin] | – | did not inhibit PCR at any of the concentrations tested
